From US12173350B2, “Chemiluminescent probes for imaging/detection of proteases” (RAMOT AT TEL-AVIV UNIVERSITY LTD., priority 2017, dated 2024)
Entries after “also recorded” stand apart in the source; their conditions may differ.

What was measured:
cathepsin B [1] = biological target: T1, cathepsin B (Homo sapiens, UniProt P07858); experiment: Sensitivity (limit of detection) of probes to detect cathepsin B, signal/noise vs enzyme concentration; assay type: biochemical; details: for limit of detection (LOD) of cathepsin B: LOD = mean blank + 3×SD
Description: (§1) The activity buffer contained: phosphate buffer 0.1M, 55 mM NaCl, 1 mM EDTA, 5 mM glutathione. All spectroscopic measurements were conducted in triplicates. The blank measurements for limit of detection calculation were repeated ten times. Limit of detection (LOD) was calculated as such: LOD=Meanblank+3×SD wherein SD—standard deviation.
The sensitivity of probe 4 to detect cathepsin B was measured and compared to that of a classic fluorescent probe (Z-Val-Cit-PABA-7HC) based on 7-hydroxy-coumarin To directly view the comparison between the two detection methods, signal/noise ratio using different cathepsin B concentrations was plotted against enzyme concentration using logarithmic scales (FIG. 4).

cathepsin B [2] = biological target: T1, cathepsin B; experiment: Chemiluminescence kinetic profile of probes with or without cathepsin B in activity buffer; assay type: biochemical; details: probe 1 μM, activity buffer pH 7.4, 10% DMSO, 2.5 units/mL cathepsin B, room temperature
Description: FIGS. 1A-1C show the chemiluminescence kinetic profiles of probes 1, 2, 3 and 4 [1 μM] in activity buffer (pH 7.4, 10% DMSO) in the presence of 2.5 units/mL cathepsin B at room temperature (1A; the inset focuses on the kinetic profile of probe 1); the total light emitted from each probe (1B); and the maximal signal yielded by each probe (1C).
as §1
Next, chemiluminescence emission of the probes, as a function of time was measured, with or without the addition of cathepsin B. The kinetic profiles of the chemiluminescence signals and their relative total-photon emissions are shown in FIGS. 1A and 1B, respectively. […] From then on, a pattern of increased chemiluminescent signal is seen, correlating to the addendum change and the improved probe solubility in aqueous media. Evaluating the probes for forthcoming cell imaging required us to also assess the maximal signal yielded by each probe, as it will culminate in higher sensitivity and resolution (FIG. 1C). The maximal signal of the different probes pales in comparison to that of probe 4, making it the leading choice for further investigation. No light emission was observed from the probes in the absence of cathepsin B.

Raw 264.7 cells = experiment: Chemiluminescence microscopy imaging of cathepsin B activity in Raw 264.7 cells; assay type: cell-based, murine; details: probe 5 μM, LV200 microscope, 20 min exposure
Description: (§2) Images were obtained following 30 min incubation with cell culture medium containing either probe 3 or probe 4 (5 μM), and were taken using the LV200 Olympus microscope using a 60× objective and 20 min exposure time. Chemiluminescence microscopy image and transmitted light image of […] cells incubated with probe 3 (a and b, respectively); Chemiluminescence microscopy image and transmitted light image of […] cells incubated with probe 4 (c and d, respectively); Chemiluminescence microscopy image and transmitted light image of CT26 cells incubated with probe 3 (e and f, respectively); Chemiluminescence microscopy image and transmitted light image of CT26 cells incubated with probe 4 (g and h, respectively); Chemiluminescence microscopy image and transmitted light image of 3T3 cells incubated with probe 3 (i and j, respectively); Chemiluminescence microscopy image and transmitted light image of 3T3 cells incubated with probe 4 (k and l, respectively).
(§3) Chemiluminescence images were acquired using Olympus LV200 inverted microscope fitted with an EMCCD camera (Hamamatsu C9100-13). […] For visualization of chemiluminescence emission, images were recorded with 20 minutes exposure times. […]

3T3 normal cells = experiment: Chemiluminescence microscopy imaging of cathepsin B activity in 3T3 normal cells; assay type: cell-based, mouse; details: 3T3 cells, probe 5 μM, LV200 microscope, 20 min exposure
Description: as §2, §3

cathepsin B [3] = biological target: T1, cathepsin B; experiment: HPLC analysis of the enzymatic degradation of the probe by cathepsin B; assay type: biochemical; details: probe 10 μM, activity buffer pH 7.4, 10% DMSO, 2.5 U/mL cathepsin B
Source text: To confirm the connection between the enzymatic degradation and chemiluminescent signal of the probes, HPLC was used to follow the enzymatic degradation of probe 4.

CT26 tumor cells = experiment: Chemiluminescence microscopy imaging of cathepsin B activity in CT26 tumor cells; assay type: cell-based; details: probe 5 μM, LV200 microscope, 20 min exposure
Description: as §2, §3

SMILES	limit of detection (LOD) of cathepsin B (cathepsin B [1]; fluorescence)	limit of detection (LOD) of cathepsin B (cathepsin B [1]; chemiluminescence)	superior sensitivity vs. fluorescent probe Z-Val-Cit-PABA-7HC (cathepsin B [1]; ratio of LOD values)	chemiluminescence emission (signal) upon addition of cathepsin B (cathepsin B [2])	chemiluminescence signal in cell imaging (Raw 264.7 cells)	chemiluminescence signal in cell imaging (3T3 normal cells)	enzymatic degradation followed by HPLC (cathepsin B [3])	chemiluminescence signal in cell imaging (CT26 tumor cells)
CC(C)C(NC(=O)OCc1ccccc1)C(=O)NC(CCCNC(N)=O)C(=O)Nc1ccc(COc2ccc3ccc(=O)oc3c2)cc1 (stereo not drawn) [Z-Val-Cit-PABA-7HC, reference compound]	1.25 U/mL	–	–	–	–	–	–	–
COC(=O)/C=C/c1ccc(C2(OC)OOC23C2CC4CC(C2)CC3C4)c(Cl)c1OCc1ccc(NC(=O)C(CCCNC(N)=O)NC(=O)C(NC(=O)CCCCCN2C(=O)CC(SC[C@@H](N)C(=O)NCC(=O)N[C@H](CCCCN)C(=O)N[C@H](CCCNC(=N)N)C(=O)N[C@H](CCCCN)C(=O)O)C2=O)C(C)C)cc1 (some centres unmarked) [Probe 4]	–	76.29 μU/mL	more than 16,000 fold	distinct increase in the chemiluminescent signal; also recorded: highest light emission	imaged via the chemiluminescence signal	no chemiluminescence signal was observed	rapid enzymatic disassembly	imaged via the chemiluminescence signal
COC(=O)/C=C/c1ccc(C2(OC)OOC23C2CC4CC(C2)CC3C4)c(Cl)c1OCc1ccc(NC(=O)C(CCCNC(N)=O)NC(=O)C(NC(=O)OCc2ccccc2)C(C)C)cc1 (centres unmarked) [Probe 2]	–	–	–	distinct increase in the chemiluminescent signal	–	–	–	–
COCCOCCOCCOCCOCCOCCOCCOCCOCCOCCOCCOCCOCCOCCOCCOCCOCCOC(=O)NC(C(=O)NC(CCCNC(N)=O)C(=O)Nc1ccc(COc2c(/C=C/C(=O)OC)ccc(C3(OC)OOC34C3CC5CC(C3)CC4C5)c2Cl)cc1)C(C)C (centres unmarked) [Probe 3]	–	–	–	distinct increase in the chemiluminescent signal; also recorded: highest light emission	no chemiluminescence signal	no chemiluminescence signal	–	no chemiluminescence signal
COC1(c2cccc(OCc3ccc(NC(=O)C(CCCNC(N)=O)NC(=O)C(NC(=O)OCc4ccccc4)C(C)C)cc3)c2Cl)OOC12C1CC3CC(C1)CC2C3 (centres unmarked) [Probe 1]	–	–	–	extremely weak emission	–	–	–	–
